According to ChEMBL document CHEMBL1201862, “PubChem BioAssay data set” (2004):
The source made the active and inactive calls.

Legend:
[1] = biological target: Protein Tat (Human immunodeficiency virus type 1 group M subtype B (isolate HXB2)(HIV-1), UniProt P04608); format: functional;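 also: tat binding to TAR RNA read out by fluorescence polarization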
[2] = Luminescence Cell-Based Dose Confirmation HTS to Identify Activators of 5'UTR Stem-Loop Driven Alpha-Synuclein mRNA Translation in H4 Neuroglioblastoma Cells. [Related pubchem assays: 1829 (Project Summary), 1814 (Primary HTS)]; format: functional
[3] = Luminescence Cell-Based Dose Response HTS to Identify Activators of Luciferase Translation or Activity in H4 […] Cells. [Related pubchem assays: 1829 (Project Summary), 1814 (Primary HTS)]; format: functional
[4] = system: H4; assay: Luminescence Cell-Based Dose Response HTS to Identify Activators of 5'UTR Stem-Loop Driven Prion Protein mRNA Translation in H4 Neuroglioblastoma Cells. [Related pubchem assays: 1829 (Project Summary), 1814 (Primary HTS)]; format: functional; settings: Homo sapiens
[5] = biological target: Transthyretin (Homo sapiens, UniProt P02766); assay: Luminescence-based cell-based high throughput dose response assay to identify activators of Transthyretin (TTR) transcription.; format: functional
[6] = biological target: Large T antigen (Simian virus 40, UniProt P03070); format: functional, Betapolyomavirus macacae;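 also: Confirmatory-stage PubChem screen for compounds that inhibit SV40 T antigen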
Chain of Large T antigen (P03070 whole entry): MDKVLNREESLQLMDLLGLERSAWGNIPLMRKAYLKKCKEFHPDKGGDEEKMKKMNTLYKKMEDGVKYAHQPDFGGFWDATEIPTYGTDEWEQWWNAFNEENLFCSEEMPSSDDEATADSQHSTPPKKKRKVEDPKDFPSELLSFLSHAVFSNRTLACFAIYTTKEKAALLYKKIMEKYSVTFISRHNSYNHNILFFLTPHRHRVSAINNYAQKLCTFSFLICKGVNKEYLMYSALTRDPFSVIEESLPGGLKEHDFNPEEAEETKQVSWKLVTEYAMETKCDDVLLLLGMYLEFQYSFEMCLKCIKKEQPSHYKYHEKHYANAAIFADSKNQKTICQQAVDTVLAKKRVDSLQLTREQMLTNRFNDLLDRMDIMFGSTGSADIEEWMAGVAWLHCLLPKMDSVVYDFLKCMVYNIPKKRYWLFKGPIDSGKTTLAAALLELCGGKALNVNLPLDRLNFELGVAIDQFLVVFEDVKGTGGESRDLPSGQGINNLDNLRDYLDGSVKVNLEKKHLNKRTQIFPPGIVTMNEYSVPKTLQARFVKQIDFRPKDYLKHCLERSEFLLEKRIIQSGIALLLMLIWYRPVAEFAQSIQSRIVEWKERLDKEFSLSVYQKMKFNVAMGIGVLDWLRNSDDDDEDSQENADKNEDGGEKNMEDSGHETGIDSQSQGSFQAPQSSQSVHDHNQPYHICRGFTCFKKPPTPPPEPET

[7] = biological target: T1, Replicative DNA helicase DnaB (Mycobacterium tuberculosis, UniProt P9WMR3); assay: DnaB intein splicing inhibitors, dose response, biochemical, cell-free fluorescence (AID 449749); format: functional
T1 sequence (P9WMR3 whole entry): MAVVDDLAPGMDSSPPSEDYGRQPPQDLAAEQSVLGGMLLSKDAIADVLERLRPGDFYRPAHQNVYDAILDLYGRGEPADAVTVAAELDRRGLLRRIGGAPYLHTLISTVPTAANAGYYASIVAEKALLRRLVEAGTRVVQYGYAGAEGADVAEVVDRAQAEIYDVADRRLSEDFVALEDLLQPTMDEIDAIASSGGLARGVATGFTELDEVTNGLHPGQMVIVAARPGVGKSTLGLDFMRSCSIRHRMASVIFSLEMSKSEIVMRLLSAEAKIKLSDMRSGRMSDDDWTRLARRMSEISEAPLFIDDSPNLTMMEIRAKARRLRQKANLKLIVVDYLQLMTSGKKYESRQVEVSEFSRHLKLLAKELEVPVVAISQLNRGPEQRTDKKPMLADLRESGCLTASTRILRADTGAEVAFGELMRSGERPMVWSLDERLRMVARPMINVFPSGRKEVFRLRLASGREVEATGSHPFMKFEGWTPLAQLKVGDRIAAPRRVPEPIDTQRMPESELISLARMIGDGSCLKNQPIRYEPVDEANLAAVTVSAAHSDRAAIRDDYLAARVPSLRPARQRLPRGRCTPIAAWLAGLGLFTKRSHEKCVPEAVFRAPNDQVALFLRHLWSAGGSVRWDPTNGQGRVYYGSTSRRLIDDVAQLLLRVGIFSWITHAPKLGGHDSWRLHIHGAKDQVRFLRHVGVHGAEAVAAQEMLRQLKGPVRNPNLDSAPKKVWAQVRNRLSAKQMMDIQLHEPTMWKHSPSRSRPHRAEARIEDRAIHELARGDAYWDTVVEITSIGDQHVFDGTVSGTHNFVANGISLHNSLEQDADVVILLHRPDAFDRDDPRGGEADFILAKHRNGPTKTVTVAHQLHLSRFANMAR

[8] = biological target: T2, Protein RecA (Mycobacterium tuberculosis, UniProt P9WHJ3); assay: Fluorescence Cell-Free Homogeneous Dose Retest to Identify Inhibitors of RecA-Intein Splicing Activity. [Related pubchem assays (depositor defined):AID2097, AID2223, AID489010, AID492950]; format: functional
T2 sequence (P9WHJ3 whole entry): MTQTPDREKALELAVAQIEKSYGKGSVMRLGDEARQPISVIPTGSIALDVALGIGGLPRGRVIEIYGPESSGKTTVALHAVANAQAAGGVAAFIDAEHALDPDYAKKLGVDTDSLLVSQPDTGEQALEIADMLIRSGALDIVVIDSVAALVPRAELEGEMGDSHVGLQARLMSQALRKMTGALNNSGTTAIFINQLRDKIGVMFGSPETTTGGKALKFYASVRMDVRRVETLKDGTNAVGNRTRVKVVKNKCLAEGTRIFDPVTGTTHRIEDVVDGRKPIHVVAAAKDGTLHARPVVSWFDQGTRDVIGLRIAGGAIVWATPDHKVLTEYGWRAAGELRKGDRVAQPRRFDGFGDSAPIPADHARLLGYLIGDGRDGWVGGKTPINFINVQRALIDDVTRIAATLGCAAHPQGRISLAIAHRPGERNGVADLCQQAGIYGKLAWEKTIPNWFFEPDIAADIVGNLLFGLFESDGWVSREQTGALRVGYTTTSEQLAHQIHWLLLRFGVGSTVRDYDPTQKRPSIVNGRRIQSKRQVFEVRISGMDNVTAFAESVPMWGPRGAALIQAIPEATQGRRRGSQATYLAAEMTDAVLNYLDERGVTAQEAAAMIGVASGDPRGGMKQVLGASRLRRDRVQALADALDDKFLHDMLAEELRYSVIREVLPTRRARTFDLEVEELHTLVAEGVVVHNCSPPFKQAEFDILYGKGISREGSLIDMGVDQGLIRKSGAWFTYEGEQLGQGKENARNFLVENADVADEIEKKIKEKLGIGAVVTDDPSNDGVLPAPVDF

[9] = biological target: Paired box protein Pax-8 (Homo sapiens, UniProt Q06710); assay: inhibitors of PAX8-driven TPO luciferase reporter, dose response, RMG-I cells, cherry-pick (AID 687027); format: functional, cell-based;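 also: luciferase reporter driven by Pax8 target thyroperoxidase promoter measured by SteadyGlo luminescence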
Chain of Paired box protein Pax-8 (Q06710 whole entry): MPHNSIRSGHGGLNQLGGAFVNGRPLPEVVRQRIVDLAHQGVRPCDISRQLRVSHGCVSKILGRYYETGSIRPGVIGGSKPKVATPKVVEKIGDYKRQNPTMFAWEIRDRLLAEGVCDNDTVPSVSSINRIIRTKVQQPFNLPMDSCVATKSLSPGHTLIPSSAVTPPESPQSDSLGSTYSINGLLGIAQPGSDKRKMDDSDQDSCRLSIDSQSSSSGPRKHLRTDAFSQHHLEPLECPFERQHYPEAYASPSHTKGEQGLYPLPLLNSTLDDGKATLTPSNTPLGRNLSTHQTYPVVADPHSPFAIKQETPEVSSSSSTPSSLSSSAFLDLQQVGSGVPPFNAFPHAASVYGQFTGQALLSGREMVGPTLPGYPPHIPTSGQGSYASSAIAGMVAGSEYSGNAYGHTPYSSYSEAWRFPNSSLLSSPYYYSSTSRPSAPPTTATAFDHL

[10] = IOSE-T80 ovarian epithelial cell cytotoxicity, dose response, cytotoxicity control for PAX8 inhibitor project, plate reader, dry powder samples (AID 743045); format: functional, cell-based
[11] = A2780 ovarian cancer cell cytotoxicity, dose response, cytotoxicity control, plate reader, dry powder samples (AID 743046); format: functional, cell-based
[12] = NIH:OVCAR-3 ovarian cancer cell cytotoxicity, dose response, PAX8 inhibitor project, plate reader, dry powder samples (AID 743044); format: functional, cell-based
[13] = IGROV1 ovarian cancer cell cytotoxicity, dose response, PAX8 inhibitor project, plate reader, dry powder samples (AID 743043); format: functional, cell-based; settings: IGROV-1
[14] = cytotoxicity in OVCAR8 ovarian cancer cells, dose response, PAX8 project, cell-based, plate reader, dry powder samples (AID 743197); format: functional; settings: OVCAR-8
[15] = system: HEK293; assay: HEK293T cell cytotoxicity, dose response, cytotoxicity control, ATP luminescence, cherry-pick samples (AID 687005); format: functional, cell-based; settings: Homo sapiens;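 also: cells exposed to compound for 48 hours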
[16] = HEK293 Cytotoxicity Assay Measured in Cell-Based System Using Plate Reader - 7071-01_Inhibitor_Dose_CherryPick_Activity_Set2.; format: functional
[17] = MITF Orthogonal Assay: SK-MEL-5 CTG Assay Measured in Cell-Based System Using Plate Reader - 2084-02_Inhibitor_Dose_DryPowder_Activity_Set7.; format: functional
[18] = MITF: Counter assay: A375 proliferation Measured in Cell-Based System Using Plate Reader - 2084-03_Inhibitor_Dose_DryPowder_Activity_Set8.; format: functional; settings: A-375
[19] = TRPM1 promoter luciferase reporter signal decrease, dose response, MITF inhibitor project, cell-based, SK-MEL-5, dry powder, set 8 (AID 624430); format: functional
[20] = biological target: Metabotropic glutamate receptor 5 (Rattus norvegicus, UniProt P31424); assay: Identification of a glycine sulfonamide based non-MPEP site positive allosteric potentiator (PAM) of mGlu5 (calcium_assay).; format: functional
Chain of Metabotropic glutamate receptor 5 (P31424 whole entry): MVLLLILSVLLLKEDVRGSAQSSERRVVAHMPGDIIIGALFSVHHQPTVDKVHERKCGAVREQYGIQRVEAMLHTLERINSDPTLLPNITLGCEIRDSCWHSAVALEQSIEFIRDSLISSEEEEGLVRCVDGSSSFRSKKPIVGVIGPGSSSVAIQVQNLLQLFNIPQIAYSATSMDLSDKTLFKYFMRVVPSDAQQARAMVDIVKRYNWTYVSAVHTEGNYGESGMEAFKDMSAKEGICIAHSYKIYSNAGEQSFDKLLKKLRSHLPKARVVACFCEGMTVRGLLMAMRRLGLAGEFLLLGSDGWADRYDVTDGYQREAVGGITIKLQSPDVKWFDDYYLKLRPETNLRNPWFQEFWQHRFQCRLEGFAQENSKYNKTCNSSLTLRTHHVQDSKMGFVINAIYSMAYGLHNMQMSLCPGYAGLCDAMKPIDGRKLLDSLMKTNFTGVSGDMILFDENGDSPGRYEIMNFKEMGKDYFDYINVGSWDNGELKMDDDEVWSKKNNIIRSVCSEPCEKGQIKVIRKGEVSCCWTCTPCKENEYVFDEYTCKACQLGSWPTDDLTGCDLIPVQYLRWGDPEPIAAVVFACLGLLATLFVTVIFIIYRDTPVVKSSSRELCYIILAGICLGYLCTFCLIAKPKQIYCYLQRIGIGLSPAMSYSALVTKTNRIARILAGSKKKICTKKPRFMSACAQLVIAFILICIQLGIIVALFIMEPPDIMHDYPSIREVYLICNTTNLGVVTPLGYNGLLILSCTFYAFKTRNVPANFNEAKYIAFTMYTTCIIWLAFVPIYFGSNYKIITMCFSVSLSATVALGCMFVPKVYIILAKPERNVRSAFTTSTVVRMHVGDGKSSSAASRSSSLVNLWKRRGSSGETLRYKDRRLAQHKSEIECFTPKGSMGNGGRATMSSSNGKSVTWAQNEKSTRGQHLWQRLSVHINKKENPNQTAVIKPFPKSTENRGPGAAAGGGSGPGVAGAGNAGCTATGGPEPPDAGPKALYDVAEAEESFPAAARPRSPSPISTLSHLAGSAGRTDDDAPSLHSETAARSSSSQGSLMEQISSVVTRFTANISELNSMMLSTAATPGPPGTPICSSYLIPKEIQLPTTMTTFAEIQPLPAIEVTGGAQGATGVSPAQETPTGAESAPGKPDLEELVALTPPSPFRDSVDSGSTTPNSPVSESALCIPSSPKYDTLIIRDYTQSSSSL

[21] = biological target: Induced myeloid leukemia cell differentiation protein Mcl-1 (Homo sapiens, UniProt Q07820); format: functional
Chain of Induced myeloid leukemia cell differentiation protein Mcl-1 (Q07820 whole entry): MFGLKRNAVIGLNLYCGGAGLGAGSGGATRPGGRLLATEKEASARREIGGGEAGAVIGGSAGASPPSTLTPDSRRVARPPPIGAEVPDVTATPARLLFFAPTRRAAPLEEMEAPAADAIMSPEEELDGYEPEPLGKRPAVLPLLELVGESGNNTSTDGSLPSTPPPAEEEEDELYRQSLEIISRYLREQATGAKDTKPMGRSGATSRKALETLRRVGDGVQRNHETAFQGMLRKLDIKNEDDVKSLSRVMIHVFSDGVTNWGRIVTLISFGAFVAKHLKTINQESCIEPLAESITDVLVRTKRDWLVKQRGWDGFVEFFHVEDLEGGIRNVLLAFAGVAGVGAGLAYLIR

[22] = biological target: T3, Mannose-6-phosphate isomerase (Homo sapiens, UniProt P34949); assay: human PMI inhibitors, high substrate, primary screen, biochemical, fluorescence intensity, high mannose 6-phosphate (AID 1220)
T3 sequence (P34949 whole entry): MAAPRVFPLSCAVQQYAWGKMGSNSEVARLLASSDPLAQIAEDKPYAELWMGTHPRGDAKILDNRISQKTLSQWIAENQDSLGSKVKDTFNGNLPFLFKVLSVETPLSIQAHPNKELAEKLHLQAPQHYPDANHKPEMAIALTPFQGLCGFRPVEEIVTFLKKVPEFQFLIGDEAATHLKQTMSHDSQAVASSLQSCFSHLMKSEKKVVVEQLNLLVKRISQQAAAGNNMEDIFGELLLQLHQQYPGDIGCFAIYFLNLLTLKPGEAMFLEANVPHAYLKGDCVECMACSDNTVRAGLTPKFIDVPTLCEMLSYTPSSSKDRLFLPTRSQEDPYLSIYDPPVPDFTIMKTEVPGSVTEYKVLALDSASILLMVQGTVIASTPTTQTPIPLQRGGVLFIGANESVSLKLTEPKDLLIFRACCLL

[23] = biological target: Genome polyprotein (dengue virus type 2, UniProt P29990); assay: Dengue-2 NS5 methyltransferase inhibitors, primary screen, biochemical, confirmation dose response (AID 588689); format: functional
Chain of Genome polyprotein (P29990 2492-3391 limits assumed): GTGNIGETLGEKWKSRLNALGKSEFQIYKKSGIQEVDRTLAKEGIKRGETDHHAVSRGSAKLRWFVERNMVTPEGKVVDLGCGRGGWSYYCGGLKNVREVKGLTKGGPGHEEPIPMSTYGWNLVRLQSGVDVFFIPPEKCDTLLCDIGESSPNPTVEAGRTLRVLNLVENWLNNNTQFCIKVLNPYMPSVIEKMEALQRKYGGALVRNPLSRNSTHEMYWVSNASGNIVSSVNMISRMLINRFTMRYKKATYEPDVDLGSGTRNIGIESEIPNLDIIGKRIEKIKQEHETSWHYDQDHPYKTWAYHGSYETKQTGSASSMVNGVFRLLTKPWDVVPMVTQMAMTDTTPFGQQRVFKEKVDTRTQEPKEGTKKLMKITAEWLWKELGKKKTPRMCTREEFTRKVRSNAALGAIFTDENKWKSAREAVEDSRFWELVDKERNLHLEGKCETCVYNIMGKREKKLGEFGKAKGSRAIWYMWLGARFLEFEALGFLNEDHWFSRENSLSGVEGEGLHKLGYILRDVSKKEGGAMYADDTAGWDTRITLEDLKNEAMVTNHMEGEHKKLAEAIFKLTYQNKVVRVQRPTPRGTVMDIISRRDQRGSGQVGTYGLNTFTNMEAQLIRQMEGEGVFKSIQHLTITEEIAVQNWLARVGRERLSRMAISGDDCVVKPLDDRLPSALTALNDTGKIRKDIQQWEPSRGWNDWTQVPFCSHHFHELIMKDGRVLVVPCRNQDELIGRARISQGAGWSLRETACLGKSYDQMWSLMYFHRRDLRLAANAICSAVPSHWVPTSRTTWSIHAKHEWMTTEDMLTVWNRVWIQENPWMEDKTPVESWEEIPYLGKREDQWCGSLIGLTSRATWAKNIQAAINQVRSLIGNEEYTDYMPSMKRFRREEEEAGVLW

[24] = biological target: T4, Histone-lysine N-methyltransferase NSD2 (Homo sapiens, UniProt O96028); format: biochemical
T4 sequence (O96028 whole entry): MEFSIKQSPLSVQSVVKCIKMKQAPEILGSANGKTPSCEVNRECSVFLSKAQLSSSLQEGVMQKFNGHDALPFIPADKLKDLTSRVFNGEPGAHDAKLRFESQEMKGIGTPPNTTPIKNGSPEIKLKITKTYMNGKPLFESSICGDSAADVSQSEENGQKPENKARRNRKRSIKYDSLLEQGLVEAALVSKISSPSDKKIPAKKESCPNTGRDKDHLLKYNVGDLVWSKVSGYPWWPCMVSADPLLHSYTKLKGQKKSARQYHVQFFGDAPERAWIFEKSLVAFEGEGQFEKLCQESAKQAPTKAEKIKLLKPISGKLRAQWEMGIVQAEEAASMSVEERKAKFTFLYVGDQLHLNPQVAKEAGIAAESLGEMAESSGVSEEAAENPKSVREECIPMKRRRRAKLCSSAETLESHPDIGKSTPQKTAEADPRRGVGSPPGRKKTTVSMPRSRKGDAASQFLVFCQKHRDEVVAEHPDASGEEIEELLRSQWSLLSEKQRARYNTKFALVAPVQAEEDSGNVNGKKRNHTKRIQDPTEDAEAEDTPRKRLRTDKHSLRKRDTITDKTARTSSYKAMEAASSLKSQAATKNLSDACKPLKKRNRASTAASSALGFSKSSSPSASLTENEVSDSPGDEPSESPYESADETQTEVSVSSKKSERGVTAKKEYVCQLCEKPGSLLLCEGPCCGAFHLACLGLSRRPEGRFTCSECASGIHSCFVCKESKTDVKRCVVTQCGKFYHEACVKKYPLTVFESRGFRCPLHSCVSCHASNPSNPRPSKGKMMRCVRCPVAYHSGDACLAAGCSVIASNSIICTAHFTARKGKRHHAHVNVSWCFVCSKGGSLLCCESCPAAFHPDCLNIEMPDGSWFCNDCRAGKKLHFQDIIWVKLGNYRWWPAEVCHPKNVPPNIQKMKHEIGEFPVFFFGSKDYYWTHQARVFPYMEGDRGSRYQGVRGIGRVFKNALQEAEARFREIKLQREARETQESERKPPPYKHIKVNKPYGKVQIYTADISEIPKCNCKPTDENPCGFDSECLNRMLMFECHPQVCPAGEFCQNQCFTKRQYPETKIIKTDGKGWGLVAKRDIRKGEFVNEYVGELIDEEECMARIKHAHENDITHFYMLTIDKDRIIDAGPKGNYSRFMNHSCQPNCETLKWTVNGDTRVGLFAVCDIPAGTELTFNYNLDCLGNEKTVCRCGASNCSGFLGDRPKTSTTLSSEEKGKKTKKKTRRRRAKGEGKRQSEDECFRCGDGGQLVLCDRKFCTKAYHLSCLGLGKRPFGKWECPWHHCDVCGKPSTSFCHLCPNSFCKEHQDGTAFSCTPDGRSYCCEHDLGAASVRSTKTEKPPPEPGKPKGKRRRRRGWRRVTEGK

[25] = biological target: RNA-editing ligase 1, mitochondrial (Trypanosoma brucei brucei, UniProt P86926); assay: TbREL1 ligase inhibitors, dose response, biochemical, fluorescence, Trypanosoma brucei (AID 1117295); format: functional
Chain of RNA-editing ligase 1, mitochondrial (P86926 whole entry): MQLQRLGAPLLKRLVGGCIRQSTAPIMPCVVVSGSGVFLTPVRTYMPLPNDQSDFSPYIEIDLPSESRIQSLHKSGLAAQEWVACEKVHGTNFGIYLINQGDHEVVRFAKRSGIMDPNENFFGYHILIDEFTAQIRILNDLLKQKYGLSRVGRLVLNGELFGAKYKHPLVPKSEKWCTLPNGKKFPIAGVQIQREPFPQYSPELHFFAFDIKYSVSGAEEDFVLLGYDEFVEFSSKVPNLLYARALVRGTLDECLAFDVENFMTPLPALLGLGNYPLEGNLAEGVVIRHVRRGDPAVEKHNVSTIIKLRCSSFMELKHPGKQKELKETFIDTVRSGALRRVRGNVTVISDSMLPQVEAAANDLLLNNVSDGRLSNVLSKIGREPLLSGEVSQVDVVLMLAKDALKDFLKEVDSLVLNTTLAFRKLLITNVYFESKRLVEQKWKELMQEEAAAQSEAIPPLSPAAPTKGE

[26] = cells; settings: HEK293

Chain of Protein Tat (P04608 whole entry): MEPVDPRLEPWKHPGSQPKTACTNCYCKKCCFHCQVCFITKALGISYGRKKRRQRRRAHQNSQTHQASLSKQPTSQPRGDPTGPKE

## Cn1c(SCC(=O)c2cc(Cl)c(Cl)s2)nnc1-c1ccco1
[1]
  IC50: > 50 µM (active)

## c1ccc(Sc2ncnc3c2oc2ccccc23)nc1
[2]
  EC50: 4.69 µM (active)
[3]
  EC50: 26.6 µM (active)
[4]
  EC50: 90.1 µM (active)
[5]
  EC50: > 167 µM (inactive)

## O=C(CCl)c1cc2c3c(c1)CC(=O)N3CCC2
[6]
  IC50: 40.6 µM (active)
[7]
  AC50: 35.9 µM (active)
[8]
  EC50: 11.7 µM (active)
[5]
  EC50: > 167 µM (inactive)

## C[C@@H]1CCCCO[C@@H](CN(C)CC2CCCCC2)[C@H](C)CN([C@H](C)CO)C(=O)c2cc(NS(=O)(=O)c3ccc(Cl)cc3)ccc2O1
[9]
  AC50: 5.5 µM (active)
[10]
  AC50: 41.4 µM (active)
[11]
  AC50: 20.4 µM (active)
[12]
  AC50: 23.4 µM (active)
[13]
  AC50: 33.5 µM (active)
[14]
  AC50: 25.6 µM (active)

## O=C(C[C@@H]1CC[C@H]2[C@@H](COC[C@@H](O)CN2Cc2ccc(Cl)cc2)O1)NCc1cccc(F)c1
[15]
  AC50: 21.4 µM (active)
[16]
  AC50: 21.4 µM (active)

## CCS(=O)(=O)NCC[C@H]1CC[C@H](NS(=O)(=O)c2cccc(F)c2)[C@H](CO)O1
[15]
  AC50: 33.5 µM (active)
[16]
  AC50: 33.5 µM (active)

## COc1ccc(S(=O)(=O)Nc2ccc3c(c2)C(=O)N([C@H](C)CO)C[C@H](C)[C@@H](CN(C)S(=O)(=O)c2ccc(C)cc2)OCCCC[C@H](C)O3)cc1
[9]
  AC50: 6.27 µM (active)
[10]
  AC50: 9.47 µM (active)
[11]
  AC50: 44 µM (active)
[12]
  AC50: 11.8 µM (active)
[13]
  AC50: 33.5 µM (active)
[14]
  AC50: 14.8 µM (active)

## O=C1C(Nc2ccccc2)=CC(=O)c2ncccc21
[17]
  AC50: 0.195 µM (active)
[18]
  AC50: 16.2 µM (active)
[19]
  AC50: 0.413 µM (active)

## CS(=O)(=O)N(CC(=O)Nc1cccnc1F)c1ccccc1Cl
[20]
  EC50: 1.69 µM

## CN(C(=O)CN(c1ccccc1Cl)S(C)(=O)=O)c1ccccc1
[20]
  EC50: 10 µM (inconclusive)

## O=C(Cc1csc(N2CCOCC2)n1)N/N=C/c1ccc(O)c(O)c1O
[21]
  IC50: 3.52 µM (active)
[22]
  IC50: 8.94 µM (active)
[23]
  IC50: > 100 µM (active)
[24]
  AC50: > 20 µM (inactive)
[25]
  IC50: > 96.6 µM (inactive)

## CSc1nc2ccccc2n1CCOc1ccccc1
[26]
  AC50: > 52 µM (inactive)
